Values of other authors in patent US8334298B2, “Treatment or prevention of ovarian hyperstimulation syndrome (OHSS) using a dopamine agonist” (Ferring International Center S.A., priority 2005, dated 2012).

Settings: oncolytic models; cited from earlier work

Q: Which toxic effects does the source give for `Cc1cc(C)c(/C=C2\C(=O)Nc3ccccc32)[nH]1` [SU5416] here?
A: serious toxic effects
